Series [1] can be described thus: Intravenous PK study d-amphetamine, hArg-Amp, Orn-Amp (Example 11). Conditions: […] equivalent, n=5, d-amphetamine in plasma.
The nature of series [2]: Intranasal PK study d-amphetamine, hArg-Amp, Orn-Amp (Example 10). The note with it: […] equivalent, n=5, d-amphetamine in plasma, given in minutes.
Series [3] is described as follows: Average results of 4 oral PK studies, Lys-Amp vs hArg-Amp (Example 7). Conditions: average of 4 oral studies, n=20; Lys-Amp = 100%.
Series [4] can be described thus: Oral PK study Lys-Amp, hArg-Amp, Orn-Amp, Cit-Amp (Example 9). Conditions: in words.
Series [5] can be described thus: Parenteral (intranasal, intravenous) administration of hArg-Amp, release of amphetamine (Example 1). Conditions: parenteral routes (intranasal, intravenous).
For series [6] the following is noted: oral; hArg-Amp = 100%.

These results are taken from US7776917B2, “Non-standard amino acid conjugates of amphetamine and processes for making and using the same” (priority 2006, dated 2010).

Read-outs that look alike come from different tables or passages of the source.

For the molecule `C[C@H](N)Cc1ccccc1` [d-amp, d-amphetamine], the Tmax in series [1] and in series [2] was 15 m throughout. For l-lysine-d-amphetamine [Lys-Amp], the “% Tmax” value in series [3] was determined as 100%.

As for “l-citrulline-d-amphetamine hydrochloride [Cit-Amp]”, the “Tmax compared to Lys-Amp” value in series [4] is given as “significantly shifted the Tmax”. On to `C[C@@H](Cc1ccccc1)NC(=O)[C@@H](N)CCCCN=C(N)N.Cl.Cl` [hArg-Amp, l-homoarginine-d-amphetamine Dihydrochloride], for which the release of amphetamine in series [5] was below 50%. In addition, the “% Tmax” value in series [6] is 100%.
